# Source: patent US11446287B2, “Compounds and methods for EP300 or CBP modulation and indications therefor” (Opna Immuno-Oncology SA, priority 2019, dated 2022)
# Molecular target: T1, Recombinant human EP300 containing the bromodomain (EP300-BD (1040-1161)) (Homo sapiens, UniProt Q09472)
# T1 construct: Recombinant human EP300 bromodomain (EP300-BD (1040-1161)); made in house; host or cells: E. coli BL21-CodonPlus (DE3), modified pET vector
# T1 sequence (Q09472 1040-1161): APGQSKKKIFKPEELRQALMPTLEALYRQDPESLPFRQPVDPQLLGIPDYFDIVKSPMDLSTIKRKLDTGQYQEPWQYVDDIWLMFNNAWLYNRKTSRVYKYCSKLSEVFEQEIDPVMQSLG
# Assay: EP300 Alphascreen binding assay
# Procedure, shortened: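 Displacement of a biotinylated acetyl-K56 histone H3 peptide from the N-His bromodomain construct (1040-1161) measured by AlphaScreen proximity, beads at 7.5 μg/ml final, read 60 min after addition. Protein, peptide and compound first incubated 1 h at room temperature, pH 7.5 HEPES buffer; IC50 by four-parameter logistic fit.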
row,SMILES,IC50 [µM]
1,"Cc1noc(C)c1-c1cnc2c(c1)c(-c1c(Cl)cc(C(=O)O)cc1OCC(F)F)cn2-c1cnc(C2CC2)nc1 [P-0390, 3-chloro-4-(1-(2-cyclopropylpyrimidin-5-yl)-5-(3,5-dimethylisoxazol-4-yl)-1H-pyrrolo[2,3-b]pyridin-3-yl)-5-(2,2-difluoroethoxy)benzoic acid]",0.0001 to 1
2,"Cc1noc(C)c1-c1cnc2c(c1)c(-c1c(Cl)cc(C(=O)O)cc1OC(C)C)cn2C1(C)CCOC1 (stereo not drawn) [P-0408, 3-chloro-4-(5-(3,5-dimethylisoxazol-4-yl)-1-(3-methyltetrahydrofuran-3-yl)-1H-pyrrolo[2,3-b]pyridin-3-yl)-5-isopropoxybenzoic acid]",0.0001 to 1
3,"Cc1noc(C)c1-c1cnc2c(c1)c(C1CCC(C(=O)O)CC1)cn2-c1ccc(F)cc1F (stereo not drawn) [P-0434, 4-(1-(2,4-difluorophenyl)-5-(3,5-dimethylisoxazol-4-yl)-1H-pyrrolo[2,3-b]pyridin-3-yl)cyclohexane-1-carboxylic acid]",0.0001 to 1
4,"Cc1noc(C)c1-c1cnc2c(c1)c(-c1cccc(C(=O)O)c1)cn2Cc1ccccc1 [P-0048, 3-(1-benzyl-5-(3,5-dimethylisoxazol-4-yl)-1H-pyrrolo[2,3-b]pyridin-3-yl)benzoic acid]",0.0001 to 1
5,"COC(=O)c1cc(-c2cn(C(c3ccccn3)C3CCCC3)c3ncc(-c4c(C)noc4C)cc23)ccn1 (stereo not drawn) [P-0040, methyl 4-(1-(cyclopentyl(pyridin-2-yl)methyl)-5-(3,5-dimethylisoxazol-4-yl)-1H-pyrrolo[2,3-b]pyridin-3-yl)picolinate]",0.0001 to 1
6,"Cc1cc(C(=O)O)cc(OC(C)C)c1-c1cn(C2CCOCC2)c2ncc(-c3c(C)noc3C)cc12 [P-0402, 4-(5-(3,5-dimethylisoxazol-4-yl)-1-(tetrahydro-2H-pyran-4-yl)-1H-pyrrolo[2,3-b]pyridin-3-yl)-3-isopropoxy-5-methylbenzoic acid]",0.0001 to 1
7,"CCOc1cc(C(=O)O)nc(OCC)c1-c1cn(-c2ncccc2C#N)c2ncc(-c3c(C)noc3C)cc12 [P-0421, 5-(1-(3-cyanopyridin-2-yl)-5-(3,5-dimethylisoxazol-4-yl)-1H-pyrrolo[2,3-b]pyridin-3-yl)-4,6-diethoxypicolinic acid]",0.0001 to 1
8,"Cc1noc(C)c1-c1cnc2c(c1)c(-c1cnn(CC(C)(C)O)c1)cn2C(c1ccccn1)C1CCCC1 (stereo not drawn) [P-0037, 1-(4-(1-(cyclopentyl(pyridin-2-yl)methyl)-5-(3,5-dimethylisoxazol-4-yl)-1H-pyrrolo[2,3-b]pyridin-3-yl)-1H-pyrazol-1-yl)-2-methylpropan-2-ol]",1 to 8
9,"Cc1noc(C)c1-c1cnc2c(c1)c(-c1ccc(C(=O)O)cc1OC(F)(F)F)cn2-c1ccc(=O)n(C)c1 [P-0399, 4-(5-(3,5-dimethylisoxazol-4-yl)-1-(1-methyl-6-oxo-1,6-dihydropyridin-3-yl)-1H-pyrrolo[2,3-b]pyridin-3-yl)-3-(trifluoromethoxy)benzoic acid]",0.0001 to 1
10,"Cc1noc(C)c1-c1cnc2c(c1)c(-c1ccc(C(=O)O)cc1OC(F)(F)F)cn2-c1ccc(C2CC2)nc1 [P-0388, 4-(1-(6-cyclopropylpyridin-3-yl)-5-(3,5-dimethylisoxazol-4-yl)-1H-pyrrolo[2,3-b]pyridin-3-yl)-3-(trifluoromethoxy)benzoic acid]",0.0001 to 1
11,"CCOc1cc(C(=O)O)c(F)cc1-c1cn(C2CCN(CCC#N)CC2)c2ncc(-c3c(C)noc3C)cc12 [P-0446, 4-(1-(1-(2-cyanoethyl)piperidin-4-yl)-5-(3,5-dimethylisoxazol-4-yl)-1H-pyrrolo[2,3-b]pyridin-3-yl)-5-ethoxy-2-fluorobenzoic acid]",0.0001 to 1
12,Cc1noc(C)c1-c1cnc2c(c1)c(-c1ccc(CC(=O)O)cc1F)cn2-c1ccc(F)cc1F [P-0437],0.0001 to 1
13,"COc1ncc(-n2cc(-c3ccc(C(=O)O)cc3OC(F)(F)F)c3cc(-c4c(C)noc4C)cnc32)cn1 [P-0392, 4-(5-(3,5-dimethylisoxazol-4-yl)-1-(2-methoxypyrimidin-5-yl)-1H-pyrrolo[2,3-b]pyridin-3-yl)-3-(trifluoromethoxy)benzoic acid]",0.0001 to 1
14,"CCOc1cc(C(=O)O)nc(OCC)c1-c1cn(C2CCN(C(=O)OC(C)(C)C)CC2)c2ncc(-c3c(C)noc3C)cc12 [P-0433, 5-(1-(1-(tert-butoxycarbonyl)piperidin-4-yl)-5-(3,5-dimethylisoxazol-4-yl)-1H-pyrrolo[2,3-b]pyridin-3-yl)-4,6-diethoxypicolinic acid]",0.0001 to 1
15,"CCc1onc(C)c1-c1cnc2c(c1)c(-c1c(Cl)cc(C(=O)O)cc1OC(F)(F)F)cn2-c1ccc(C2CC2)nc1 [P-0448, 3-chloro-4-(1-(6-cyclopropylpyridin-3-yl)-5-(5-ethyl-3-methylisoxazol-4-yl)-1H-pyrrolo[2,3-b]pyridin-3-yl)-5-(trifluoromethoxy)benzoic acid]",0.0001 to 1
16,"CCOc1cc(C(=O)O)nc(OCC)c1-c1cn(-c2cnc(C3CC3)nc2)c2ncc(-c3c(C)noc3C)cc12 [P-0424, 5-(1-(2-cyclopropylpyrimidin-5-yl)-5-(3,5-dimethylisoxazol-4-yl)-1H-pyrrolo[2,3-b]pyridin-3-yl)-4,6-diethoxypicolinic acid]",0.0001 to 1
17,"CCc1noc(C)c1-c1cnc2c(c1)c(-c1ccc(C(=O)O)cc1OC(F)(F)F)cn2C1CCOCC1 [P-0400, 4-(5-(3-ethyl-5-methylisoxazol-4-yl)-1-(tetrahydro-2H-pyran-4-yl)-1H-pyrrolo[2,3-b]pyridin-3-yl)-3-(trifluoromethoxy)benzoic acid]",0.0001 to 1
18,"CCOc1nc(C(=O)O)cc(C)c1-c1cn(C(C2CC2)C2CC2)c2ncc(-c3c(C)noc3C)cc12 [P-0417, 5-(1-(dicyclopropylmethyl)-5-(3,5-dimethylisoxazol-4-yl)-1H-pyrrolo[2,3-b]pyridin-3-yl)-6-ethoxy-4-methylpicolinic acid]",0.0001 to 1
19,"Cc1noc(C)c1-c1cnc2c(c1)c(-c1cnn(C(C)(C)C(=O)O)c1)cn2C(c1ccccn1)C1CCCC1 (stereo not drawn) [P-0035, 2-(4-(1-(cyclopentyl(pyridin-2-yl)methyl)-5-(3,5-dimethylisoxazol-4-yl)-1H-pyrrolo[2,3-b]pyridin-3-yl)-1H-pyrazol-1-yl)-2-methylpropanoic acid]",0.0001 to 1
20,"Cc1noc(C)c1-c1cnc2c(c1)c(-c1c(Cl)cc(C(=O)O)cc1OC1CCC1)cn2-c1ncccc1C#N [P-0396, 3-chloro-4-(1-(3-cyanopyridin-2-yl)-5-(3,5-dimethylisoxazol-4-yl)-1H-pyrrolo[2,3-b]pyridin-3-yl)-5-cyclobutoxybenzoic acid]",0.0001 to 1
21,"CCOc1nc(C(=O)O)c(Cl)cc1-c1cn(C2CCOCC2)c2ncc(-c3c(C)noc3C)cc12 [P-0398, 3-chloro-5-(5-(3,5-dimethylisoxazol-4-yl)-1-(tetrahydro-2H-pyran-4-yl)-1H-pyrrolo[2,3-b]pyridin-3-yl)-6-ethoxypicolinic acid]",0.0001 to 1
22,"Cc1noc(C)c1-c1cnc2c(c1)c(-c1c(Cl)cc(C(=O)O)cc1OC(F)(F)F)cn2-c1ccc(C2CC2)nc1 [P-0441, 3-chloro-4-(1-(6-cyclopropylpyridin-3-yl)-5-(3,5-dimethylisoxazol-4-yl)-1H-pyrrolo[2,3-b]pyridin-3-yl)-5-(trifluoromethoxy)benzoic acid]",0.0001 to 1
23,"Cc1noc(C)c1-c1cnc2c(c1)c(-c1c(Cl)cc(C(=O)O)cc1OC(C)C)cn2-c1cnc(C2CC2)nc1 [P-0393, 3-chloro-4-(1-(2-cyclopropylpyrimidin-5-yl)-5-(3,5-dimethylisoxazol-4-yl)-1H-pyrrolo[2,3-b]pyridin-3-yl)-5-isopropoxybenzoic acid]",0.0001 to 1
24,"CCOc1cc(C(=O)O)nc(OCC)c1-c1cn(-c2ncccc2C(N)=O)c2ncc(-c3c(C)noc3C)cc12 [P-0422, 5-(1-(3-carbamoylpyridin-2-yl)-5-(3,5-dimethylisoxazol-4-yl)-1H-pyrrolo[2,3-b]pyridin-3-yl)-4,6-diethoxypicolinic acid]",0.0001 to 1
25,"COC(=O)c1cc(-c2cn(C(c3ccccn3)C3CCC3)c3ncc(-c4c(C)noc4C)cc23)ccn1 (stereo not drawn) [P-0046, methyl 4-(1-(cyclobutyl(pyridin-2-yl)methyl)-5-(3,5-dimethylisoxazol-4-yl)-1H-pyrrolo[2,3-b]pyridin-3-yl)picolinate]",0.0001 to 1
26,"Cc1noc(C)c1-c1cnc2c(c1)c(-c1ccc(C(=O)O)cc1OC(C)C)cn2C1(C)CCOCC1 [P-0403, 4-(5-(3,5-dimethylisoxazol-4-yl)-1-(4-methyltetrahydro-2H-pyran-4-yl)-1H-pyrrolo[2,3-b]pyridin-3-yl)-3-isopropoxybenzoic acid]",0.0001 to 1
27,"Cc1noc(C)c1-c1cnc2c(c1)c(-c1c(F)cc(C(=O)O)cc1OC1CC1)cn2C1CCOCC1 [P-0397, 3-cyclopropoxy-4-(5-(3,5-dimethylisoxazol-4-yl)-1-(tetrahydro-2H-pyran-4-yl)-1H-pyrrolo[2,3-b]pyridin-3-yl)-5-fluorobenzoic acid]",0.0001 to 1
28,"Cc1noc(C)c1-c1cnc2c(c1)c(-c1ccnc(C(=O)O)c1)cn2C(C1CC1)C1CC1 [P-0041, 4-(1-(dicyclopropylmethyl)-5-(3,5-dimethylisoxazol-4-yl)-1H-pyrrolo[2,3-b]pyridin-3-yl)picolinic acid]",0.0001 to 1
29,"Cc1noc(C)c1-c1cnc2c(c1)c(-c1ccnc(C(=O)O)c1)cn2CC1CC1 [P-0045, 4-(1-(cyclopropylmethyl)-5-(3,5-dimethylisoxazol-4-yl)-1H-pyrrolo[2,3-b]pyridin-3-yl)picolinic acid]",0.0001 to 1
30,"CCOc1cc(C(=O)O)nc(OCC)c1-c1cn(-c2ccc(C#N)cc2F)c2ncc(-c3c(C)noc3C)cc12 [P-0423, 5-(1-(4-cyano-2-fluorophenyl)-5-(3,5-dimethylisoxazol-4-yl)-1H-pyrrolo[2,3-b]pyridin-3-yl)-4,6-diethoxypicolinic acid]",0.0001 to 1
